# Key:
# Type in all cases: cell-based, human
# [1] = tested on: SW480 cells carrying a p53-responsive luciferase reporter; assay: p53-responsive reporter assay; conditions: 1.11 μM, 6 hour and 15 hour time points
# Experimental: SW480 cells carrying a p53-responsive luciferase reporter were used for assay of functional restoration of mutant p53. Cells were seeded in 96-well plates (5 × 10^4 cells/well) and were treated with compounds indicated for 6 and 15 h, respectively. Then, D-luciferin was added to each well with final concentration 100 μg/mL, and cells were imaged by using an IVIS Imaging System to detect luciferase activity.
# p53-mutant SW480 human colon cancer cells, stably expressing a p53-responsive luciferase reporter, were used to assay functional restoration p53 pathway-dependent transcription in mutant p53-expressing tumor cells. Cells were seeded in 96-well plates (5 × 10^4 cells/well) and were treated with small-molecule compounds for 6 and 15 h, respectively. Then, D-luciferin was added to each well at a final concentration of 100 μg/mL, and cells were imaged by using an IVIS Imaging System (Xenogen) to detect luciferase activity.
# p53 protein = assay: Western blot, p53 protein levels
# Experimental: Cells were treated for 24 h with indicated compounds, concentrations and cell lines. Abbreviations: S.E.: Short exposure; L.E.: Long exposure.
# (§1) After treatment, protein lysates were collected for Western blot analysis. A total of 15 μg of protein was used for SDS-PAGE. After primary and secondary antibody incubations, the signal was detected by a chemiluminescence detection kit, imaged by Syngene (Imgen Technologies). Antibodies for NAG-1 (GDF15) and P53 were from Santa Cruz Biotechnology; for caspase 8, cleaved caspase 8, caspase 9, caspase 3, cleavage PARP, eIF2α, p-eIF2α (Ser51), CHOP, ATF4, DR5, and PUMA were from Cell Signaling Technology. Noxa and p21 were from Calbiochem. Ran was from BD Biosciences.
# ALAS1, UROD = assay: Western blot, heme biosynthesis enzymes
# Experimental: Figure 8 Inhibition of heme biosynthesis leads to upregulation of ATF4. (A) HT29 cells were treated with SA and ONC201 for 20 hours. Western blotting was performed using the indicated antibodies. (B) HT29 cells were transfected with siCtrl, siHRI, siClpX, siALAS1, siClpX/siALAS1 and siClpX/siALAS1/siHRI for 48 hours. (C) HT29 cells were transfected with siCtrl, siLonP1, siClpP for 24 or 48 hours respectively, and then treated with ONC201 for 24 hours. (D) Proposed model of ONC201-induced cell apoptosis through ClpP/ALAS1/HRI/ATF4 axis. (E, F) Silencing of ClpP in HCT116 p53^−/− and MDA-MB-468 cells and then treated with PG3, PG3-Oc and ONC201. Western blot was performed using indicated antibodies.
# as §1
# Supplementary Figure 2: ROS and NO are not responsible for PG3-induced HRI activation. (A, B) cells were pre-treated
# with ZnPP, L-NMMA, SA and NAC for 2 hours respectively, and then ONC201 or PG3 was added to the medium for 24 hour treatment.
# Western blot was performed using indicated antibodies.
# (1 picture or pasted object on this page, not shown here)
compound,measurement,setting,value
CCc1c(C)[nH]c(/C=C2\N=C(c3ccc[nH]3)C=C2OC)c1C [PG3],p53-responsive reporter activity,[1],do not activate reporter activity
same,wild-type p53 protein level,"p53 protein; HCT116, 24 h",do not upregulate expression
same,endogenous mutant p53 R273H protein level,"p53 protein; HT29, 24 h",no effects on stability
same,endogenous mutant p53 R175H protein level,"p53 protein; TOV-112D, 24 h",no effects on stability
same,exogenous mutant p53 R175H protein level,"p53 protein; engineered HCT116-R175H cells, 24 h",stabilize
same,ALAS1 protein level,"ALAS1, UROD; 24 hour treatment",does not lead to the downregulation of ALAS1
same,UROD protein levels,"ALAS1, UROD; western blot",do not have any effects
